{
  "source": "patent US6924311B2",
  "about": "“Methods for affecting various diseases utilizing LXR compounds” (X-Ceptor Therapeutics, Inc., priority 2001, dated 2005)",
  "key": {"LXRα": {"target": "T1, LXRα (Homo sapiens, UniProt Q13133)", "T1 sequence (Q13133 1-447)": "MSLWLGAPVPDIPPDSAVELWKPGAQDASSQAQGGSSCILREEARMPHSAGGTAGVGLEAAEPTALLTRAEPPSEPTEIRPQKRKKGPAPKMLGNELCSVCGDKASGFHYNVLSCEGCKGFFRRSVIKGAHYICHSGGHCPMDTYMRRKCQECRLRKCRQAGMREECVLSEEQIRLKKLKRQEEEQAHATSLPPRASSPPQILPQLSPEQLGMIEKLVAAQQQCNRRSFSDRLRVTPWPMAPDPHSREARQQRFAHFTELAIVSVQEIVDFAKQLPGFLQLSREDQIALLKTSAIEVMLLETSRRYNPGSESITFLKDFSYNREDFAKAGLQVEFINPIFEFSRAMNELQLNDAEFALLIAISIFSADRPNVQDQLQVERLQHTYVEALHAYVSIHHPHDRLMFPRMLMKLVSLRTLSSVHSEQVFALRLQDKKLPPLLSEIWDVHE", "conditions": "stated as considered, no test described; cited from earlier work"}, "[1]": {"assay": "Plasma HDL cholesterol levels in wildtype and LXR knockout mice", "format": "in vivo", "conditions": "10 mg/kg daily oral, day 7", "protocol": "To determine the individual contribution of LXRα and LXRβ to increases in HDL cholesterol levels, Compound 1 (10 mg/kg) was administered for seven days by daily oral gavage in a sesame oil/ethanol vehicle via a 1 cc syringe fitted with a 20G disposable feeding needle. Compound was solvated in ethanol (5% final volume) and brought up to final volume with sesame oil (Sigma, St. Louis, Mo.). On day 7 mice were anesthetized with isofluorane and blood samples were obtained by retro-orbital plexus puncture. Blood samples were collected in heparinized tubes, centrifuged to obtain plasma and stored at -20° C. HDL levels were determined by precipitating non-HDL cholesterol from plasma samples using a precipitating reagent (Wako Diagnostic 278-67409, Richmond, Va.). The remaining HDL cholesterol was than quantitated using a colorimetric enzymatic assay adapted to a 96 well plate format (Infinity Total Cholesterol Reagent, Sigma, St. Louis, Mo.). […] (23%) strains and unchanged when LXRβ is eliminated. […] Thus either LXRα or LXRβ alone is competent to elevate HDL cholesterol in response to agonist treatment (FIG. 5). The lack of selectivity in HDL regulation contrasts the selective decrease in triglyceride levels observed only when LXRα is eliminated (LXRα-/-, LXRαβ-/-; FIGS. 1 and 2)."}, "[2]": {"assay": "Dietary cholesterol absorption, fecal extraction method", "format": "in vivo, mice", "conditions": "50 mg/kg daily oral, 7 days", "protocol": "Induction of cholesterol efflux pumps such as ABCA1 in the intestine limits the absorption of dietary cholesterol by stimulating the efflux of cholesterol out of intestinal enterocytes and into the intestinal lumen where it is excreted. To examine the effect of LXR pan-agonists on dietary cholesterol absorption, mixed wildtype and LXRαβ−/− mice were treated with vehicle or Compound 1 (50 mg/kg) for seven days prior to the initiation of the cholesterol absorption protocol. Compound 1 was administered by daily oral gavage in a 1% carboxy methyl-cellulose/ethanol vehicle via a 1-cc syringe fitted with a 20G disposable feeding needle. Compound was solvated in ethanol (5% final volume) and brought up to final volume with 1% carboxy methylcellulose. On day seven of the study, animals received a single oral bolus dose of 0.67 μCi [4-^14C]cholesterol (New England Nuclear, Boston, Mass.) and 1.3 μCi [5,6-^3H]sitostanol (ARC, St. Louis Mo.) by gavage in MCT oil (Mead Johnson, Evansville, Ind.). […] Extracted samples were counted on a scintillation counter and then analyzed based upon the following equation. [((^14C/^3H) dosing mixture)−(^14C/^3H) fecal samples)]/((^14C/^3H) dosing mixture). […] This agonist-dependent effect is lost in LXRαβ−/− mice indicating a requirement for LXR activity in mediating this activity."}, "peritoneal macrophages": {"tested_on": "peritoneal macrophages", "assay": "ApoA1-dependent cholesterol efflux assay (reverse cholesterol transport) in peritoneal macrophages", "format": "cell-based, mice", "conditions": "1.0 μM", "source_text": "The individual contributions of both receptors to macrophage gene expression were examined by first measuring the amount of mRNA encoding LXRα and LXRβ in thioglycolate-elicited peritoneal macrophages obtained from mixed wildtype mice. Thioglycolate-elicited peritoneal macrophages were isolated from mice 4 days after peritoneal injection of thioglycolate media. Peritoneal macrophages were harvested by lavage of the peritoneum with phosphate buffered saline (PBS), cells were washed, transferred to 60 mm culture plates and incubated at 37° C. in RPMI 1640 media (Life Technologies) containing 10% FBS, 2 mmol/L glutamine, 100 μg/mL streptomycin and 100 IU penicillin (Life Technologies). After 5 hours at 37° C., cells were washed 5 times with PBS to remove non-adherent cells and adherent cells were further incubated in RPMI 1640 media supplemented with 10% FBS for 24 hours. To determine the mRNA levels of LXRα and LXRβ, after 24 hours total RNA was isolated from cultured macrophages using RNeasy kits (QIAGEN Inc.) according to the supplier's total RNA isolation procedure. The RNA samples were further treated with deoxyribonuclease I to eliminate contaminating genomic DNA. LXRα and LXRβ mRNA levels were than analyzed by real-time based quantitative PCR using Perkin Elmer ABI Prism 7700 and Sequence Detection System software (Perkin Elmer). […] Since ABCA1 is involved in mediating reverse cholesterol transport, peritoneal macrophages isolated as described above and cultured for 24 hours in the absence or presence of LXR agonist (1.0 μM Compound 1) were examined in a cholesterol efflux assay which measures reverse cholesterol transport in vitro. Mouse peritoneal macrophages isolated as described above from wildtype (mixed and C57BL/6), LXRα−/− (C57BL/6), LXRβ−/−, and LXRαβ−/− mice were cultured in 96 well plates (5×10^4 cells/well) at 37° C. After 24 hours, cells were labeled for 48 hours with 0.2 μCi/ml ^14C-cholesterol in RPMI 1640 medium with 1% FBS. Following the labeling period, ^14C-cholesterol was removed and the cells were cultured for 24 hours in serum free RPMI 1640 media in the presence or absence of 10 μg/ml apolipoprotein A (ApoA1). In this assay ApoA1 acts as a cholesterol acceptor and mimics the cholesterol-accepting function performed by HDL particles in vivo. Following this incubation, the media is removed, cells are washed and than lysed with 0.2 M sodium hydroxide. To determine ApoA1-dependent cholesterol efflux, the amount of ^14C-cholesterol present in the media is divided by the total counts (media+cell lysate) and the value determined in the absence of ApoA is subtracted from the value determined in the presence of ApoA. […] No effect is observed upon elimination of LXRα alone."}},
  "data": [
    {"smiles": "O=S(=O)(c1ccccc1)N(CC(F)(F)F)c1ccc(C(O)(C(F)(F)F)C(F)(F)F)cc1", "note": "[Compound 1, N-(2,2,2-trifluoroethyl)-N-[4-(2,2,2-trifluoro-1-hydroxy-1-trifluoromethylethyl)-phenyl]-benzene sulfonamide]", "values": [
      {"measurement": "binding and activation of LXRα", "setting": "LXRα", "result": "binds and activates both LXRα and LXRβ with similar potency and efficacy"},
      {"measurement": "agonist-dependent increase in HDL", "setting": "[1]; LXRαβ−/− mice", "result": "completely lost"},
      {"measurement": "reduction of agonist-dependent increase in HDL", "setting": "[1]; LXRα−/− A129 mice versus wildtype", "result": 23, "unit": "%"},
      {"measurement": "reduction of agonist-dependent increase in HDL", "setting": "[1]; LXRα−/− C57BL/6 mice versus wildtype", "result": 8, "unit": "%"},
      {"measurement": "agonist-dependent increase in HDL", "setting": "[1]; LXRβ−/− mice", "result": "unchanged"},
      {"measurement": "effect on HDL levels", "setting": "[1]; wildtype mice", "result": "significant increase in HDL levels"},
      {"measurement": "effect on cholesterol absorption", "setting": "[2]; LXRαβ−/− mice", "result": "lost"},
      {"measurement": "effect on cholesterol absorption", "setting": "[2]; mixed wildtype mice", "result": "significant decrease in cholesterol absorption"},
      {"measurement": "reverse cholesterol transport (cholesterol efflux)", "setting": "peritoneal macrophages; LXRαβ−/− macrophages", "result": "further reduced"},
      {"measurement": "reverse cholesterol transport (cholesterol efflux)", "setting": "peritoneal macrophages; LXRα−/− (C57BL/6) macrophages", "result": "No effect"},
      {"measurement": "reverse cholesterol transport (cholesterol efflux)", "setting": "peritoneal macrophages; LXRβ−/− macrophages", "result": "significantly reduced"},
      {"measurement": "reverse cholesterol transport (cholesterol efflux)", "setting": "peritoneal macrophages; wildtype (mixed and C57BL/6) macrophages", "result": "stimulates reverse cholesterol transport"}
    ]}
  ]
}
